Values joined by “and” are separate entries in the source; they are usually repeats but may differ in a detail not shown here. Equal entries are not always repeated. “Also recorded” adds a separate entry of the source.
What was measured:
[1] = tested on: leukocytes (PMN) in aqueous humor; test: Leukocytes (PMN) measurement in aqueous humor, rabbit paracentesis model; format: in vivo; settings: aqueous humor at the second paracentesis; for PMN numbers, Mean (number/μl): group mean; for PMN (number/μl): raw data per sample
Method: Each rabbit was placed in a restraint device and tagged with the alphanumeric code. The formulations were instilled (50 μl) into the conjunctival sac of both eyes 180, 120, 90 and 30 min before the first paracentesis; then 15, 30, 90 min after the first paracentesis. To perform the first paracentesis the animals were anaesthetized by intraveneous injection of 5 mg/kg Zoletil® (Virbac; 2.5 mg/kg tiletamine HCl and 2.5 mg/kg zolazepam HCl) and one drop of local anesthetic (Novesina®, Novartis) was administered to the eye. Anterior chamber paracentesis was performed with a 26 G needle attached to a tuberculin syringe; the needle was introduced into the anterior chamber through the cornea, taking care not to damage the tissues. Two hours after the first paracentesis, the animals were sacrificed with 0.4 ml Tanax® (Intervet International B.V.) and the second paracentesis was performed. About 100 μl of aqueous humor were removed at the second paracentesis. Aqueous humor was immediately split in four aliquots and stored at −80° C. until analysis. Then both eyes were enucleated and the iris-ciliary body was carefully excised, placed in polypropylene tubes, and stored at −80° C. until analysis.
For the determination of the number of leukocytes we used a haemocytometer (Improved Neubauer Chamber; Brigth-line, Hausser Scientific) and a Polyvar 2 microscope (Reichert-Jung).

[2] = Side effects of corticosteroids (very preliminary data, not shown)
[3] = tested on: rabbit eye (anterior chamber paracentesis); test: Rabbit paracentesis model, overall anti-inflammatory activity; format: in vivo; settings: 0.1%, 0.5% and 1% topical formulations; preliminary conclusions; listed as BOL-303242-X
From the text: Inflammatory processes are multidimensional in origin, and are characterized by complex cellular and molecular events involving numerous components all of which have not been identified. Prostaglandins are among these mediators and play an important role in certain forms of ocular inflammation. Paracentesis of the anterior chamber in the rabbit eye induces inflammatory reaction due to the disruption of the blood-aqueous barrier (“BAB”), which is mediated, at least in part, by prostaglandin E2 [References 1-3 below]. Intraocular or topical administration of PGE2 disrupts the BAB. [Reference 4, below] The treatment schedule adopted in this study was similar to the clinical NSAIDs (Ocufen) treatment schedule used by surgeons for patients before cataract surgery.
Each rabbit was placed in a restraint device and tagged with the alphanumeric code. The formulations were instilled (50 μl) into the conjunctival sac of both eyes 180, 120, 90 and 30 min before the first paracentesis; then 15, 30, 90 min after the first paracentesis. To perform the first paracentesis the animals were anaesthetized by intraveneous injection of 5 mg/kg Zoletil® (Virbac; 2.5 mg/kg tiletamine HCl and 2.5 mg/kg zolazepam HCl) and one drop of local anesthetic (Novesina®, Novartis) was administered to the eye. […]

With `C[C@@H]1C[C@H]2[C@@H]3CCC4=CC(=O)C=C[C@]4(C)[C@@]3(F)[C@@H](O)C[C@]2(C)[C@@]1(O)C(=O)CO` [Dex, dexamethasone] the “PMN numbers, Mean (number/μl)” value ([1]; 0.1% topical formulation) was 30.000 number/μl.

For `CCOC(=O)O[C@]1(C(=O)OCCl)CC[C@H]2[C@@H]3CCC4=CC(=O)C=C[C@]4(C)[C@H]3[C@@H](O)C[C@@]21C` [LE, loteprednol etabonate], the “PMN (number/μl)” value ([1]; 0.5% topical formulation) was 40 number/μl and 20 number/μl and 30 number/μl.

With `Cc1ccc2c(NCC(O)(CC(C)(C)c3cc(F)cc4c3OCC4)C(F)(F)F)cccc2n1` (stereo not drawn) [BOL] the “Side effects of corticosteroids” value [2] was “does not have some of the side effects of corticosteroids”, the “Anti-inflammatory activity in the rabbit paracentesis model (conclusion)” value [3] was “active; also recorded: as effective an anti-inflammatory drug as some of the commonly accepted prior-art steroids or NSAID” and the “PMN (number/μl)” value ([1]; 1% topical formulation) was 30 number/μl and 20 number/μl and 40 number/μl.

With `CC(C(=O)O)c1ccc(-c2ccccc2)c(F)c1` (stereo not drawn) [F, flurbiprofen] the “PMN numbers, Mean (number/μl)” value ([1]; 0.03% topical formulation) was 30.000 number/μl.

From patent US20080031884A1, “COMPOSITIONS AND METHODS FOR TREATING, REDUCING, AMELIORATING, OR ALLEVIATING POSTERIOR-SEGMENT OPHTHALMIC DISEASES” (priority 2006, published 2008)
